In PubChem BioAssay (NCI):
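GI50 is the concentration that inhibits growth by half. TGI denotes the concentration required for complete inhibition of growth.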

Columns and labels:
Assay in all cases: DTP human tumour cell line panel, 384-well format; in the data active means GI50 below about 0.43 µM; inactive means the rest
[1] = test system: A498 renal
[2] = test system: A549 NSCLC
[3] = test system: ACHN renal
[4] = test system: BT-549 breast
[5] = test system: CAKI-1 renal
[6] = test system: COLO 205 colon
[7] = test system: DU-145 prostate
[8] = test system: EKVX NSCLC
[9] = test system: HCC-2998 colon
[10] = test system: HCT-116 colon
[11] = test system: HCT-15 colon
[12] = test system: HL-60(TB) leukemia
[13] = test system: HOP-62 NSCLC
[14] = test system: HOP-92 NSCLC
[15] = test system: HS 578T breast
[16] = test system: HT29 colon
[17] = test system: IGROV1 ovarian
[18] = test system: KM12 colon
[19] = test system: LOX IMVI melanoma
[20] = test system: M14 melanoma
[21] = test system: MALME-3M melanoma
[22] = test system: MCF7 breast
[23] = test system: MDA-MB-231 breast
[24] = test system: MDA-MB-435 melanoma
[25] = test system: MDA-MB-468 breast
[26] = test system: MOLT-4 leukemia
[27] = test system: NCI-H226 lung
[28] = test system: NCI-H23 lung
[29] = test system: NCI-H322M lung
[30] = test system: NCI-H460 NSCLC
[31] = test system: NCI-H522 lung
[32] = test system: NCI/ADR-RES ovarian
[33] = test system: OVCAR-3 ovarian
[34] = test system: OVCAR-4 ovarian
[35] = test system: OVCAR-5 ovarian
[36] = test system: OVCAR-8 ovarian
[37] = test system: PC-3 prostate
[38] = test system: RPMI-8226 leukemia
[39] = test system: RXF 393 renal
[40] = test system: SF-268 CNS
[41] = test system: SF-295 CNS
[42] = test system: SF-539 CNS
[43] = test system: SK-MEL-28 melanoma
[44] = test system: SK-MEL-5 melanoma
[45] = test system: SK-OV-3 ovarian
[46] = test system: SN12C renal
[47] = test system: SNB-19 CNS
[48] = test system: SNB-75 CNS
[49] = test system: SR leukemia
[50] = test system: T-47D breast
[51] = test system: TK-10 renal
[52] = test system: U251 glioblastoma
[53] = test system: UACC-257 melanoma
[54] = test system: UACC-62 melanoma

COc1ccc2c(OCc3nnc4ccc(-c5ccccc5)nn34)ccnc2c1
94.6 µM: TGI [33]
> 100 µM: TGI [1] | TGI [2] | TGI [3] | TGI [4] | TGI [5] | TGI [6] | TGI [7] | TGI [8] | TGI [9] | TGI [10] | TGI [11] | TGI [12] | TGI [13] | TGI [14] | TGI [15] | TGI [16] | TGI [17] | TGI [18] | TGI [19] | TGI [20] | TGI [21] | TGI [22] | TGI [23] | TGI [24] | TGI [25] | TGI [26] | TGI [27] | TGI [28] | TGI [29] | TGI [30] | TGI [31] | TGI [32] | TGI [34] | TGI [35] | TGI [36] | TGI [37] | TGI [38] | TGI [39] | TGI [40] | TGI [41] | TGI [42] | TGI [43] | TGI [44] | TGI [45] | TGI [46] | TGI [47] | TGI [48] | TGI [49] | TGI [50] | TGI [51] | TGI [52] | TGI [53] | TGI [54]
inactive: GI50 [1] > 100 µM | GI50 [2] > 100 µM | GI50 [3] 42.2 µM | GI50 [4] > 100 µM | GI50 [5] > 100 µM | GI50 [6] > 100 µM | GI50 [7] > 100 µM | GI50 [8] > 100 µM | GI50 [9] > 100 µM | GI50 [10] > 100 µM | GI50 [11] > 100 µM | GI50 [12] > 100 µM | GI50 [13] 60.5 µM | GI50 [14] > 100 µM | GI50 [15] > 100 µM | GI50 [16] > 100 µM | GI50 [17] > 100 µM | GI50 [18] > 100 µM | GI50 [19] > 100 µM | GI50 [20] > 100 µM | GI50 [21] > 100 µM | GI50 [22] > 100 µM | GI50 [23] > 100 µM | GI50 [24] > 100 µM | GI50 [25] > 100 µM | GI50 [26] > 100 µM | GI50 [27] > 100 µM | GI50 [28] > 100 µM | GI50 [29] > 100 µM | GI50 [30] 73.8 µM | GI50 [31] 44.6 µM | GI50 [32] > 100 µM | GI50 [33] 29.8 µM | GI50 [34] 28.9 µM | GI50 [35] > 100 µM | GI50 [36] > 100 µM | GI50 [37] > 100 µM | GI50 [38] > 100 µM | GI50 [39] > 100 µM | GI50 [40] > 100 µM | GI50 [41] > 100 µM | GI50 [42] > 100 µM | GI50 [43] > 100 µM | GI50 [44] > 100 µM | GI50 [45] > 100 µM | GI50 [46] 63 µM | GI50 [47] 50.1 µM | GI50 [48] > 100 µM | GI50 [49] > 100 µM | GI50 [50] > 100 µM | GI50 [51] 48.7 µM | GI50 [52] > 100 µM | GI50 [53] > 100 µM | GI50 [54] > 100 µM
